“And” between values parts separate entries of the source, which are not always exact repeats. Equal entries are not always repeated. Toxic doses and inconclusive results are not listed. Rule as the data show it: active = T/C of 150% or more; inactive = T/C below 125%.
Test system: L1210 leukemia ip in BDF1 mice, survival T/C
Assay: NCI In Vivo Anticancer Drug Screen. Data for tumor model L1210 Leukemia (intraperitoneal) in B6D2F1 (BDF1) mice
Conditions: endpoint: mean survival time, higher = longer survival
Procedure, shortened: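 Survival endpoint. Drug-treated group vs vehicle group, expressed as T divided by C. Tumor passaged by transplantation.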

[1] = dose: 100.0 mg/kg/injection, schedule: Q04DX003 (ip), vehicle: Klucel (hydroxypropylcellulose) (HPC)
[2] = dose: 400.0 mg/kg/injection, schedule: Q04DX003 (ip), vehicle: Klucel (hydroxypropylcellulose) (HPC)
[3] = dose: 100.0 mg/kg/injection, schedule: Q01DX009 (ip), vehicle: Klucel (hydroxypropylcellulose) (HPC)
[4] = dose: 200.0 mg/kg/injection, schedule: Q01DX009 (ip), vehicle: Klucel (hydroxypropylcellulose) (HPC)
[5] = dose: 400.0 mg/kg/injection, schedule: Q01DX009 (ip), vehicle: Klucel (hydroxypropylcellulose) (HPC)
[6] = dose: 100.0 mg/kg/injection, schedule: Q01DX001 (ip), vehicle: saline
[7] = dose: 200.0 mg/kg/injection, schedule: Q01DX001 (ip), vehicle: saline
[8] = dose: 400.0 mg/kg/injection, schedule: Q01DX001 (ip), vehicle: saline
[9] = dose: 100.0 mg/kg/injection, schedule: Q04DX003 (ip), vehicle: saline
[10] = dose: 50.0 mg/kg/injection, schedule: Q04DX003 (ip), vehicle: Klucel (hydroxypropylcellulose) (HPC)
[11] = dose: 100.0 mg/kg/injection, schedule: Q01DX001 (ip), vehicle: Klucel (hydroxypropylcellulose) (HPC)
[12] = dose: 200.0 mg/kg/injection, schedule: Q04DX003 (ip), vehicle: Klucel (hydroxypropylcellulose) (HPC)
[13] = dose: 100.0 mg/kg/injection, schedule: Q01DX009 (ip), vehicle: saline
[14] = dose: 200.0 mg/kg/injection, schedule: Q01DX009 (ip), vehicle: saline
[15] = dose: 200.0 mg/kg/injection, schedule: Q04DX003 (ip), vehicle: saline
[16] = dose: 400.0 mg/kg/injection, schedule: Q01DX009 (ip), vehicle: saline
[17] = dose: 400.0 mg/kg/injection, schedule: Q04DX003 (ip), vehicle: saline

Measured: T/C

COC(CBr)OC
inactive: dose: 10.0 mg/kg/injection, schedule: Q01DX009 (ip), vehicle: saline 95 % of control | dose: 10.0 mg/kg/injection, schedule: Q04DX003 (ip), vehicle: saline 98 % of control | dose: 20.0 mg/kg/injection, schedule: Q01DX009 (ip), vehicle: saline 95 % of control | dose: 20.0 mg/kg/injection, schedule: Q04DX003 (ip), vehicle: saline 101 % of control | dose: 25.0 mg/kg/injection, schedule: Q04DX003 (ip), vehicle: saline with Tween-80 98 % of control | dose: 40.0 mg/kg/injection, schedule: Q01DX009 (ip), vehicle: saline 104 % of control | dose: 40.0 mg/kg/injection, schedule: Q04DX003 (ip), vehicle: saline 108 % of control | dose: 50.0 mg/kg/injection, schedule: Q04DX003 (ip), vehicle: saline with Tween-80 98 % of control

CCCCCCC(C)(O)CCCCOC(C)OCC (configuration not stated)
inactive: dose: 50.0 mg/kg/injection, schedule: Q04DX002 (ip), vehicle: saline with Tween-80 95 % of control | dose: 100.0 mg/kg/injection, schedule: Q04DX002 (ip), vehicle: saline with Tween-80 95 % of control | dose: 200.0 mg/kg/injection, schedule: Q04DX002 (ip), vehicle: saline with Tween-80 88 % of control | dose: 400.0 mg/kg/injection, schedule: Q04DX002 (ip), vehicle: saline with Tween-80 95 % of control

O=[N+]([O-])c1ccc(S)cc1
inactive: dose: 100.0 mg/kg/injection, schedule: Q01DX009 (ip), vehicle: saline sonified 103 % of control | [1] 89 % of control | dose: 200.0 mg/kg/injection, schedule: Q01DX009 (ip), vehicle: saline sonified 91 % of control | dose: 400.0 mg/kg/injection, schedule: Q01DX009 (ip), vehicle: saline sonified 92 % of control | [2] 90 % of control

O=c1[nH]c(=O)c2nc3ccccc3nc2[nH]1
inactive: [3] 100 % of control | [4] 94 % of control | [5] 93 % of control

COC(=O)c1c[nH]c(=O)cc1O
inactive: [6] 101 % of control | [7] 98 % of control | [8] 98 % of control

CNCCOC
inactive: dose: 100.0 mg/kg/injection, schedule: Q04DX002 (ip), vehicle: saline 98 % of control

CCOC(=O)/C(=C\c1ccccn1)C(C)=O
inactive: dose: 25.0 mg/kg/injection, schedule: Q04DX003 (ip), vehicle: saline 102 % of control | dose: 50.0 mg/kg/injection, schedule: Q04DX003 (ip), vehicle: saline 102 % of control | [9] 102 % of control

CN=C(N/N=C/c1ccccc1)N(C)C
inactive: dose: 25.0 mg/kg/injection, schedule: Q04DX003 (ip), vehicle: Klucel (hydroxypropylcellulose) (HPC) 107 % of control | [10] 100 % of control | dose: 87.5 mg/kg/injection, schedule: Q04DX003 (ip), vehicle: Klucel (hydroxypropylcellulose) (HPC) 98 % of control

Oc1c(Br)cc(Br)cc1/C=N/c1nc(-c2ccccc2)cs1.Oc1c(Br)cc(Br)cc1/C=N/c1nc(-c2ccccc2)cs1.[Co]
inactive: [6] 93 % of control | [8] 86 % of control

Cc1cc(C)c(S(=O)(=O)NN)c(C)c1
inactive: dose: 100.0 mg/kg/injection, schedule: Q04DX003 (ip), vehicle: saline with Tween-80 94 % of control | dose: 200.0 mg/kg/injection, schedule: Q04DX003 (ip), vehicle: saline with Tween-80 90 % of control

CCOC(=O)CCc1c[nH]c(C)c1C(=O)C(=O)OCC
inactive: [11] 95 % of control | [1] 93 % of control | dose: 200.0 mg/kg/injection, schedule: Q01DX001 (ip), vehicle: Klucel (hydroxypropylcellulose) (HPC) 98 % of control | [12] 102 % of control | dose: 400.0 mg/kg/injection, schedule: Q01DX001 (ip), vehicle: Klucel (hydroxypropylcellulose) (HPC) 95 % of control | [2] 96 % of control

C=CCNC(=O)N(CC)C(=NCC)c1ccc(NC(=O)c2ccc(C(=O)Nc3ccc(C(=NCC)N(CC)C(=O)NCC=C)cc3)cc2)cc1
inactive: dose: 3.87 mg/kg/injection, schedule: Q01DX015 (ip), vehicle: methylcellulose (MC) 104 % of control

O=C(Nc1cc(Cl)ccc1O)Nc1cc(C(F)(F)F)ccc1Cl
inactive: dose: 100.0 mg/kg/injection, schedule: Q01DX001 (ip), vehicle: carboxymethylcellulose (CMC) 101 % of control | dose: 100.0 mg/kg/injection, schedule: Q01DX009 (ip), vehicle: carboxymethylcellulose (CMC) 95 % of control and 103 % of control | dose: 100.0 mg/kg/injection, schedule: Q04DX002 (ip), vehicle: carboxymethylcellulose (CMC) 97 % of control and 104 % of control | dose: 100.0 mg/kg/injection, schedule: Q04DX003 (ip), vehicle: carboxymethylcellulose (CMC) 97 % of control | dose: 200.0 mg/kg/injection, schedule: Q01DX001 (ip), vehicle: carboxymethylcellulose (CMC) 97 % of control | dose: 200.0 mg/kg/injection, schedule: Q01DX009 (ip), vehicle: carboxymethylcellulose (CMC) 97 % of control and 103 % of control | dose: 200.0 mg/kg/injection, schedule: Q04DX002 (ip), vehicle: carboxymethylcellulose (CMC) 97 % of control and 104 % of control | dose: 200.0 mg/kg/injection, schedule: Q04DX003 (ip), vehicle: carboxymethylcellulose (CMC) 97 % of control | dose: 400.0 mg/kg/injection, schedule: Q01DX001 (ip), vehicle: carboxymethylcellulose (CMC) 98 % of control | dose: 400.0 mg/kg/injection, schedule: Q01DX009 (ip), vehicle: carboxymethylcellulose (CMC) 92 % of control and 97 % of control | dose: 400.0 mg/kg/injection, schedule: Q04DX002 (ip), vehicle: carboxymethylcellulose (CMC) 98 % of control and 90 % of control | dose: 400.0 mg/kg/injection, schedule: Q04DX003 (ip), vehicle: carboxymethylcellulose (CMC) 100 % of control

CS(=O)(=O)O
inactive: [13] 102 % of control | [9] 108 % of control | [14] 93 % of control | [15] 98 % of control | [16] 100 % of control | [17] 109 % of control

Nc1nc(N)c(-c2ccc(Cl)c(Cl)c2)c(COc2ccc(NC(=O)c3ccc(S(=O)(=O)F)cc3)cc2Cl)n1
inactive: dose: 50.0 mg/kg/injection, schedule: Q01DX001 (ip), vehicle: Klucel (hydroxypropylcellulose) (HPC) 97 % of control | [11] 97 % of control

O=C(CCc1ccc(O)cc1)c1c(O)cc(O)cc1O
inactive: [6] 96 % of control | [7] 94 % of control | [8] 92 % of control

Cc1cc(C(C)(C)C)ccc1S(=O)(=O)/C=C/c1ccccc1
inactive: dose: 100.0 mg/kg/injection, schedule: Q01DX001 (ip), vehicle: acetone 95 % of control | [13] 93 % of control | dose: 200.0 mg/kg/injection, schedule: Q01DX001 (ip), vehicle: acetone 97 % of control | [14] 88 % of control | dose: 400.0 mg/kg/injection, schedule: Q01DX001 (ip), vehicle: acetone 92 % of control | [16] 88 % of control

COc1ccccc1-n1c(O)c(N=Nc2ccccc2)c(=O)n(-c2ccc(C)cc2)c1=S
inactive: [10] 100 % of control | [1] 98 % of control | [12] 102 % of control

O=[N+]([O-])c1ccc(Oc2ccc[n+]([O-])c2)nc1
inactive: [3] 103 % of control | [1] 93 % of control | [4] 101 % of control | [12] 96 % of control | [5] 98 % of control | [2] 95 % of control

Cc1c(Br)c(C)c(Br)c(OCC(=O)O)c1Br
inactive: dose: 100.0 mg/kg/injection, schedule: Q04DX002 (ip), vehicle: Klucel (hydroxypropylcellulose) (HPC) 98 % of control | dose: 200.0 mg/kg/injection, schedule: Q04DX002 (ip), vehicle: Klucel (hydroxypropylcellulose) (HPC) 109 % of control

CCOC(=O)CCN1CC(C)OC(C)C1 (configuration not stated)
inactive: [13] 97 % of control | [9] 93 % of control | [14] 97 % of control | [15] 102 % of control | [16] 103 % of control | [17] 111 % of control

Source: PubChem BioAssay AID248 (DTP/NCI, 2004)
